Measurements: article PMC6152703, “Evaluation of the Antidiabetic Activity and Chemical Composition of Geranium collinum Root Extracts—Computational and Experimental Investigations” (Molecules : A Journal of Synthetic Chemistry and Natural …, 2017)
Read-outs that look alike come from different tables or passages of the source.

Tests used:
PTP-1B = target: T1, PTP-1B (Homo sapiens, UniProt P18031); test: PTP-1B enzyme inhibition assay; type: biochemical; details: in vitro enzyme inhibition; for IC50: read-out: Antidiabetic Activity (PTP-1B) IC50 Values (converted)
T1 sequence (P18031 1-435): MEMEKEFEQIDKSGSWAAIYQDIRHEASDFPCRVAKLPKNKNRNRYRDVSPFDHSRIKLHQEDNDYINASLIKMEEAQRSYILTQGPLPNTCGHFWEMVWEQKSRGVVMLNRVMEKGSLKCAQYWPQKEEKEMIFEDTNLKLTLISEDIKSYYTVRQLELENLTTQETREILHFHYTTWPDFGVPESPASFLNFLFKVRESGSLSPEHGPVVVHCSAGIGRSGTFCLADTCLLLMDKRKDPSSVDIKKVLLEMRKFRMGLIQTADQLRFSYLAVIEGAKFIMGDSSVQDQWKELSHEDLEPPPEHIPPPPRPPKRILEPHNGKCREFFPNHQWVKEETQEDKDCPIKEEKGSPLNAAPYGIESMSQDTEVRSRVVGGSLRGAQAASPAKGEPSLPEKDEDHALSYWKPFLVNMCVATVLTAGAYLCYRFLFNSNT
Method: (§1) The antidiabetic effect of gallic acid was evaluated in vitro on inhibitory enzymes (α-glucosidase and α-amylase). Antidiabetic activity was determined using PTP-1B inhibition and α-glucosidase procedures. PTP-1B is a negative regulator of the insulin signaling pathway. All extracts of G. collinum were obtained after a period of extraction of 2 h. […] It is well known that polyphenols can provide health benefits to humans attributed to their strong radical-scavenging and antioxidant effects.

α-glucosidase = α-glucosidase (Saccharomyces cerevisiae, UniProt P53341); type: biochemical
Method: as §1
α-Glucosidase inhibitory activities were evaluated according to the chromogenic method described by.

[1] = DPPH scavenging assay (antioxidant activity); details: 30 min, 517 nm
Method: The majority of the antioxidant activities (such as free radical scavenging) of herbal medicines, vegetables and fruits may be due to their phenolic compounds. A lower IC50 value than the standard vitamin C implied a significant antioxidant activity of the tested samples.
Antioxidant activity was measured using the DPPH (1,1-diphenyl-2-picrylhydrazyl) scavenging assay procedure as published in the literature. The extracts were dissolved in DMSO in a concentration of 100 µg/mL. Different concentrations of each extract were prepared in DMSO. Sample solution in different concentrations was added at 2.5 mL in each well of the 96 micro well plate. Into each well was added 1 mL of 0.3 mM DPPH solution in ethanol to produce the test solutions. DMSO (1 mL) was added to produce the blank solutions. Negative control sample was prepared by mixing 1 mL of DPPH solution with 2.5 mL of DMSO. The solutions were kept in the dark at room temperature for 30 min. Absorbance was measured at the wavelength of 517 nm. Ascorbic acid (vitamin C) was used as the standard sample.

Sequence of α-glucosidase (P53341 whole entry): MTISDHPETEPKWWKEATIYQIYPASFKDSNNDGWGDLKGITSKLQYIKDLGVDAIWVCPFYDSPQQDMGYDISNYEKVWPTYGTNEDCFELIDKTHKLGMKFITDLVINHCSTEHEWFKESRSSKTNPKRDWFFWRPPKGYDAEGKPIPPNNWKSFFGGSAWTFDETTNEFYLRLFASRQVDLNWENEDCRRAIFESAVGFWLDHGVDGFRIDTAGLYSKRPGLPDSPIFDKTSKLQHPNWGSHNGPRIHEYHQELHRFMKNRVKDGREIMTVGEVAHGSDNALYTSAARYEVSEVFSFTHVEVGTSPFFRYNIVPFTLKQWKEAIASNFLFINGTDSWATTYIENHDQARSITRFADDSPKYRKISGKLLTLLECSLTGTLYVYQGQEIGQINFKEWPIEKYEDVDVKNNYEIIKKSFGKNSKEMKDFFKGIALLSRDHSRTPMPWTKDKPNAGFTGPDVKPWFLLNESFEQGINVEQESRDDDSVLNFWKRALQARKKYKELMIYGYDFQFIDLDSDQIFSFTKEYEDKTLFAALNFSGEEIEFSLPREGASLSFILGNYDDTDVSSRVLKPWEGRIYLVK

## Oc1cc(O)c2c(c1)OC(c1ccc(O)c(O)c1)C(O)C2 (single isomer, unassigned; (+)) [Catechin, (+)-Catechin]
PTP-1B
  IC50: 2.14 µM
α-glucosidase
  antidiabetic activities in the α-glucosidase inhibition assay (in words): potent antidiabetic activities

## COc1cc2c(=O)oc3c(OC)c(OC)cc4c(=O)oc(c1OC)c2c34 [3,3′,4,4′-Tetra-O-methylellagic acid]
PTP-1B
  IC50: 60.4 µM
α-glucosidase; in vitro enzyme inhibition
  Antidiabetic Activity (α-Glucosidase) IC50 Values: No effect

## COc1c(O)cc2c(=O)oc3c(OC)c(O)cc4c(=O)oc1c2c34 [3,3′-Di-O-methylellagic acid]
PTP-1B
  IC50: 19 µM
α-glucosidase; in vitro enzyme inhibition
  Antidiabetic Activity (α-Glucosidase) IC50 Values: No effect

## O=C(O)/C=C/c1ccc(O)c(O)c1 [Caffeic acid]
PTP-1B
  IC50: 199 µM

## O=C(O[C@@H]1O[C@@H]2COC(=O)c3cc(O)c(O)c(O)c3-c3c(cc(O)c(O)c3O)C(=O)O[C@H]([C@H]1O)[C@@H]2O)c1cc(O)c(O)c(O)c1 [Corilagin, Corilagin (1-O-galloyl-3,6-O-hexahydroxydiphenoyl-β-D-glucose)]
PTP-1B
  IC50: 1.37 µM
α-glucosidase; in vitro enzyme inhibition
  antidiabetic activities in the α-glucosidase inhibition assay (in words): potent antidiabetic activities

## CC[C@H](CC[C@@H](C)[C@H]1CC[C@H]2[C@@H]3CC=C4C[C@@H](O[C@@H]5O[C@H](CO)[C@@H](O)[C@H](O)[C@H]5O)CC[C@]4(C)[C@H]3CC[C@]12C)C(C)C [Daucosterol, β-Sitosterol-3-O-β-D-glucopyranoside]
PTP-1B
  Antidiabetic Activity (PTP-1B) IC50 Values: No effect

## Oc1cc(O)c2c(c1)O[C@H](c1ccc(O)c(O)c1)[C@H](O)C2 [Epicatechin, (–)-Epicatechin]
PTP-1B
  IC50: 0.792 µM
α-glucosidase
  antidiabetic activities in the α-glucosidase inhibition assay (in words): potent antidiabetic activities

## Oc1cc(O)c2c(c1)O[C@H](c1cc(O)c(O)c(O)c1)[C@H](O)C2 [Epigallocatechin, (–)-Epigallocatechin (3,3′,4,5,5′,7-flavanhexol)]
PTP-1B
  Antidiabetic Activity (PTP-1B) IC50 Values: No effect

## O=C(O)c1cc(O)c(O)c(O)c1 [Gallic acid]
PTP-1B
  Antidiabetic Activity (PTP-1B) IC50 Values: No effect

## O=c1c(O)c(-c2ccc(O)c(O)c2)oc2cc(O)cc(O)c12 [Quercetin]
α-glucosidase; in vitro enzyme inhibition
  antidiabetic activities in the α-glucosidase inhibition assay (in words): potent antidiabetic activities

## O=C1O[C@H]([C@@H](O)CO)C(O)=C1O [Vitamin C, Ascorbic acid]
[1]
  Antioxidant Activity IC50 Values: 5.34 ± 0.42 µg/mL
